In ChEMBL document CHEMBL5465560, “Selectivity Literature for EUbOPEN Chemogenomic Library” (2024):
Each block holds one compound with its values, some of them ahead of it.

Tests used:
[1] = biological target: T1, RNA 5'-monophosphate methyltransferase (Homo sapiens) (UniProt Q7Z5W3); assay: Selectivity interaction (Methyltransferase screen (radiometric assays, panel of 8 PRMTs, 21 protein lysine methyltransferases, 3 DNA methyltransferases, and one RNA methyltransferase)) EUB0000272b BCDIN3D
T1 sequence (whole entry): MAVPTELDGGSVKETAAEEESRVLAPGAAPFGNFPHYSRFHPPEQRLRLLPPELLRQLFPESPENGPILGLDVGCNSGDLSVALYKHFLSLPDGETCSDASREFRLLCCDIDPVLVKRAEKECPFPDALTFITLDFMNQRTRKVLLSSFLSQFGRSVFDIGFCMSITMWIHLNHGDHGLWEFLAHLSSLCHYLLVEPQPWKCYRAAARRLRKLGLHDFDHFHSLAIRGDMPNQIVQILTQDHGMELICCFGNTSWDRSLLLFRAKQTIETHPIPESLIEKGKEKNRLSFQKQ

[2] = biological target: Homeodomain-interacting protein kinase 3 (Homo sapiens, UniProt Q9H422); assay: Selectivity interaction (Ambit KINOMEscan and KiNATiv profiling in Jurkat cells) EUB0000090b HIPK3; assay type: cell-based; settings: at 1 µM
[3] = biological target: T2, Mitogen-activated protein kinase kinase kinase 19 (Homo sapiens) (UniProt Q56UN5); assay: Selectivity interaction (Ambit KINOMEscan and KiNATiv profiling in Jurkat cells) EUB0000090b MAP3K19; assay type: cell-based; settings: at 1 µM
T2 sequence (whole entry): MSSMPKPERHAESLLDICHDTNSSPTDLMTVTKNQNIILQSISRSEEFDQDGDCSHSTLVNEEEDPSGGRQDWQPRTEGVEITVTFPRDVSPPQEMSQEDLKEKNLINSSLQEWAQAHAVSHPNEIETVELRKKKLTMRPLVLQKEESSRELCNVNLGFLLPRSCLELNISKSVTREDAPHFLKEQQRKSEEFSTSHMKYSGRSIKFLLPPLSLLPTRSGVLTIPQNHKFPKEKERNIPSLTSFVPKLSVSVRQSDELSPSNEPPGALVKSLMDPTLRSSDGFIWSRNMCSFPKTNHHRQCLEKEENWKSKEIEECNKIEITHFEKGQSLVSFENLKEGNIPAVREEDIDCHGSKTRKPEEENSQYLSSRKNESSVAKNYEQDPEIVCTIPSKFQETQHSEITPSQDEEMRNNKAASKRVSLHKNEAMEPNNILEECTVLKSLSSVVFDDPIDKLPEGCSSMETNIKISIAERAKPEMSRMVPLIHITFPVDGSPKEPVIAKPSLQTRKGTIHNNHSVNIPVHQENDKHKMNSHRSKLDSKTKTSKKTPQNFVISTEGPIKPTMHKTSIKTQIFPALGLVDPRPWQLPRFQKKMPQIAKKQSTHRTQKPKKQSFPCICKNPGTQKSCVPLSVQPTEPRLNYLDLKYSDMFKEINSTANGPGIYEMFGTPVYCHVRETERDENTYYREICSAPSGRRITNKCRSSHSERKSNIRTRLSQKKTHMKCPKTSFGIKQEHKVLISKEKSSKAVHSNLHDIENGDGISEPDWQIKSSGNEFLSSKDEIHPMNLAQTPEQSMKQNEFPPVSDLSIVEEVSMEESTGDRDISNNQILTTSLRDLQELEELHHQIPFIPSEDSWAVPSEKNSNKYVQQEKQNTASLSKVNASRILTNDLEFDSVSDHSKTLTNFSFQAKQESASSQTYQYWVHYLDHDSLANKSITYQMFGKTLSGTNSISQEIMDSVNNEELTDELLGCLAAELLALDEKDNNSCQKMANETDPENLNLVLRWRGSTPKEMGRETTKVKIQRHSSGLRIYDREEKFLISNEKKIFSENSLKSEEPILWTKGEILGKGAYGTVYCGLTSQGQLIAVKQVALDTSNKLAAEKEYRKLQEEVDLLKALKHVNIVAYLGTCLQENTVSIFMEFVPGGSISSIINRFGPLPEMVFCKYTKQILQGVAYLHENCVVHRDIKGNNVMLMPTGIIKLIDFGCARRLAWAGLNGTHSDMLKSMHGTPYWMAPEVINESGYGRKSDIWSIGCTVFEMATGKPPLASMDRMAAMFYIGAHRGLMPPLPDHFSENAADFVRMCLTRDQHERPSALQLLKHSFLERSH

[4] = biological target: Serine/threonine-protein kinase PLK3 (Homo sapiens, UniProt Q9H4B4); assay: Selectivity interaction (KinomeScan (DiscoverX)) EUB0000655a PLK3; settings: at 10 µM
[5] = biological target: Bone morphogenetic protein receptor type-1B (Homo sapiens, UniProt O00238); assay: Selectivity interaction (KinomeScan (DiscoverX)) EUB0001079a BMPR1B; settings: at 1 µM
[6] = biological target: T3, RAC-alpha serine/threonine-protein kinase (Homo sapiens, UniProt P31749); assay: Selectivity interaction (Millipore kinase profiler) EUB0000124b AKT1; settings: at 10 µM
[7] = biological target: T4, Inhibitor of nuclear factor kappa-B kinase subunit beta (Homo sapiens) (UniProt O14920); assay: Selectivity interaction (KinomeScan (DiscoverX)) EUB0000229b IKBKB; settings: at 10 µM
T4 sequence (whole entry): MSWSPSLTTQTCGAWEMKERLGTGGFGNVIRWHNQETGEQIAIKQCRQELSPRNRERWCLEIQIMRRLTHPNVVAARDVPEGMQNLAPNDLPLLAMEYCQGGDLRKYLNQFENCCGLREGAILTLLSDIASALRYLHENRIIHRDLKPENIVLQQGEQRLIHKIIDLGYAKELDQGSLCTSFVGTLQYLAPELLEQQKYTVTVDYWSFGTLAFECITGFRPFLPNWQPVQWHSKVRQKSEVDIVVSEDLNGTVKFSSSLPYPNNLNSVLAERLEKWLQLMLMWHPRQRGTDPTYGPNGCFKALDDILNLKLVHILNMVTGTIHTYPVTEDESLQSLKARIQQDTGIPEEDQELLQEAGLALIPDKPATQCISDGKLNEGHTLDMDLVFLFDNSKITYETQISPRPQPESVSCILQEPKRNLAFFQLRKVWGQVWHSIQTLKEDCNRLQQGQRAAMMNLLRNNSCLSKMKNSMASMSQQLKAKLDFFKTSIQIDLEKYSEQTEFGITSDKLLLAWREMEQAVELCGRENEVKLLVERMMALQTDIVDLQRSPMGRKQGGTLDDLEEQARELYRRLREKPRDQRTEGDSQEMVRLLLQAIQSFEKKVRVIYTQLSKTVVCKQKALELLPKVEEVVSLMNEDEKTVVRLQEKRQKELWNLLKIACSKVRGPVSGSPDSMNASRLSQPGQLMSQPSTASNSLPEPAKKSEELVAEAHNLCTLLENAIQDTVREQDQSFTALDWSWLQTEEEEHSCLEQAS

[8] = biological target: T3, RAC-alpha serine/threonine-protein kinase; assay: Selectivity interaction (Kinase panel (Z-LYTE Assay)) EUB0001632a AKT1; settings: at 10 µM

T3 sequence (P31749 whole entry): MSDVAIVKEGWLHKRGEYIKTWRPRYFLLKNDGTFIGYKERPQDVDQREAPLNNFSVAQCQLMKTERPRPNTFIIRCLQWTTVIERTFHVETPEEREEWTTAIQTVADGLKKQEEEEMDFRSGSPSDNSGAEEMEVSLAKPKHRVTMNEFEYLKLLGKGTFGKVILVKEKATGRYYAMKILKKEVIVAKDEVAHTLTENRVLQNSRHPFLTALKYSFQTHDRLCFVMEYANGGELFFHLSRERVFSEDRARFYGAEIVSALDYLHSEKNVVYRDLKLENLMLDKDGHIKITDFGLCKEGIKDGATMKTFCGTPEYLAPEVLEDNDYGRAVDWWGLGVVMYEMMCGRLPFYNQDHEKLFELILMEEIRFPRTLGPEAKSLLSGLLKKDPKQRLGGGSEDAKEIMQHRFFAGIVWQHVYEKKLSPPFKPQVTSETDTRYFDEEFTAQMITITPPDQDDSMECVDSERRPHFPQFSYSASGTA
Serine/threonine-protein kinase PLK3, sequence (Q9H4B4 whole entry, looked up): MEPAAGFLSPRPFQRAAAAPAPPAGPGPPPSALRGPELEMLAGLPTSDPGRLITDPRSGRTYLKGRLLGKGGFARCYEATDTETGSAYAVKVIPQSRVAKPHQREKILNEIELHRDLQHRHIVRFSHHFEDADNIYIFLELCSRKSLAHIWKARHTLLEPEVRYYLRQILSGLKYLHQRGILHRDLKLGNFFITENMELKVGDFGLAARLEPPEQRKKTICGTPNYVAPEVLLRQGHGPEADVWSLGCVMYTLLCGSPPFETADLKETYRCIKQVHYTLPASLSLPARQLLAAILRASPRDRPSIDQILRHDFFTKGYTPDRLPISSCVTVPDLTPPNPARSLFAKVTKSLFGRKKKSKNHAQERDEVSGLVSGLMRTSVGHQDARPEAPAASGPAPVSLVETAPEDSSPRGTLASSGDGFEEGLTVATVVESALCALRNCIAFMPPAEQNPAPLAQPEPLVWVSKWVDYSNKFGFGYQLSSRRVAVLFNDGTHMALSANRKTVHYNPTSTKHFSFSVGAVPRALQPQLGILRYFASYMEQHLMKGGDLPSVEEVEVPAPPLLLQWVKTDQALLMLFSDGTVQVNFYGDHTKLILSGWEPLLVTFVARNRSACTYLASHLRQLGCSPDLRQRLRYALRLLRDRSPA
Homeodomain-interacting protein kinase 3, sequence (Q9H422 whole entry, looked up): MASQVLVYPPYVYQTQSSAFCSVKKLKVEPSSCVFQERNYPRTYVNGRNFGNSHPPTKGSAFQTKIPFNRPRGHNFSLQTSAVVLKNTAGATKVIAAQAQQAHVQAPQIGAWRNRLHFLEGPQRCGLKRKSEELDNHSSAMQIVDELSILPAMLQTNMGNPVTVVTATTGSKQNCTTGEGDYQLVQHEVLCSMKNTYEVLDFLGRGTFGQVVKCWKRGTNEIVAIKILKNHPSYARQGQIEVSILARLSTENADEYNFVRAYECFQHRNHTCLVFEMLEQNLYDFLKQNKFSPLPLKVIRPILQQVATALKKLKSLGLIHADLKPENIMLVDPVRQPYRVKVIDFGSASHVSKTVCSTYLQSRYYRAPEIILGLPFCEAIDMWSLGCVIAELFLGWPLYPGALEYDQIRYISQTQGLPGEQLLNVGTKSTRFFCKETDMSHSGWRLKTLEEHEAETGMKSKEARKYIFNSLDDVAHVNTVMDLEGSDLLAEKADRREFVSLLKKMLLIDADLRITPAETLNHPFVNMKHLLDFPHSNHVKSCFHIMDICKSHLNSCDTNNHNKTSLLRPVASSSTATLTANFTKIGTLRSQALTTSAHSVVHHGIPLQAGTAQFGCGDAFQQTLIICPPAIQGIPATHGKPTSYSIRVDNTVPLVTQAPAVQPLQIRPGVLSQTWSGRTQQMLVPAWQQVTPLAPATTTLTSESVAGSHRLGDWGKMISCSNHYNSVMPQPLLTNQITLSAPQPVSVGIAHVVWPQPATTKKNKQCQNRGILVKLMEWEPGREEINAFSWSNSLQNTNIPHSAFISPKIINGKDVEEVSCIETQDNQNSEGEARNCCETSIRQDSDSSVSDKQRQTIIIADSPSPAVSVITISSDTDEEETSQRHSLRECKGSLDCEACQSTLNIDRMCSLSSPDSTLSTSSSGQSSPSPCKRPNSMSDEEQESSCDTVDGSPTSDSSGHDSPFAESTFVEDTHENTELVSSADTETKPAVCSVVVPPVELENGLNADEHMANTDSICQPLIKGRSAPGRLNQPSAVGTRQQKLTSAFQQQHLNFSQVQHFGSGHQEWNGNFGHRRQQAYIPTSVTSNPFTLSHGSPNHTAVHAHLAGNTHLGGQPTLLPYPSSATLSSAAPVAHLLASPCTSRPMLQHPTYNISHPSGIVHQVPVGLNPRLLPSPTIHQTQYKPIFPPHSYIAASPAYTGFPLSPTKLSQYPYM
Bone morphogenetic protein receptor type-1B, sequence (O00238 whole entry): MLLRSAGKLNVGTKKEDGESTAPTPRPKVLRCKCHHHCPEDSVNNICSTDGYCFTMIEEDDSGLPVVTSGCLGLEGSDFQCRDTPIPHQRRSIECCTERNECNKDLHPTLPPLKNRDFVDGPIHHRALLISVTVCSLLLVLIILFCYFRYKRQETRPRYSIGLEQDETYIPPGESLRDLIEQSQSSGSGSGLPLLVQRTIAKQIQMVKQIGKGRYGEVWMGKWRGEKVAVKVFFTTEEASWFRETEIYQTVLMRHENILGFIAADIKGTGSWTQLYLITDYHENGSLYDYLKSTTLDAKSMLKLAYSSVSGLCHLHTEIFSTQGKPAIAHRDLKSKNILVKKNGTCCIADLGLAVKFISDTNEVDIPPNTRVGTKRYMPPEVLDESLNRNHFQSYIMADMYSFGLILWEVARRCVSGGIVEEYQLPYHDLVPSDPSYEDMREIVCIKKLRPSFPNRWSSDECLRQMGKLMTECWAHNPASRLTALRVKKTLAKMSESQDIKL

% of activity ([1]; at 1 µM): 96%
% of activity ([1]; at 10 µM): 99.3%
SMILES: Cc1cc(C)cc([C@H]2c3cc(C)ccc3NC(=O)CN2C(=O)c2ccc(Br)s2)c1

SMILES: CN(C)C/C=C/C(=O)Nc1ccc(C(=O)N2CCCC(Nc3ncc(Cl)c(-c4c[nH]c5ccccc45)n3)C2)cc1 (centres undefined)
% of control [2]: 85%
% of control [3]: 98%

SMILES: CN(C)CCOc1ccc(-c2nc(-c3ccncc3)c(-c3ccc4c(c3)CC/C4=N\O)[nH]2)cc1
% of control [4]: 94%

SMILES: Nc1cnc(N2CCc3cc(S(=O)(=O)Nc4c(F)cc(Cl)cc4F)cc(N4CCCC4=O)c32)nc1 [TP-020n]
% of control [5]: 100%

% of control [6]: 107%
SMILES: CC(=O)Nc1cccc(-n2c(=O)n(C3CC3)c(=O)c3c(Nc4ccc(I)cc4F)n(C)c(=O)c(C)c32)c1

SMILES: COc1cc(N(C)c2ccnc3ccc(C(F)(F)F)cc23)cc(OC)c1OC
% binding [7]: 94%

% of control [8]: -0.23%
SMILES: Cn1cc(-n2cnc3c(NCc4nc5cc(Cl)c(Cl)cc5[nH]4)nc(N4CCOCC4)nc32)cn1
